Patent US9861612B2 (priority 2014, dated 2018)
Where two headings read alike, the source gives them in different places.

How the values were obtained:
[1] = molecular target: RORγ ligand binding domain (Homo sapiens (Human), UniProt P51449); assay: biochemical; assay type: biochemical
Procedure: Various concentrations of test ligands in 0.1 microlitres DMSO were dispensed to assay plates using an Labcyte Echo acoustic dispenser. Two pre-mixes were prepared and incubated for 1 hr at room temp in the dark.

[2] = test system: TH17 cell differentiation (human CD4+CCR6+ T cells); assay: Human Th17 cell differentiation assay (IL-17A ELISA); assay type: cell-based; conditions: 96 h, IL-17A in extracellular media by ELISA, 4 days, mean, read-out: Inhibition of TH17 cell differentiation-Mean IC50

Chain of RORγ ligand binding domain (P51449 whole entry, looked up, the tested form may be a part): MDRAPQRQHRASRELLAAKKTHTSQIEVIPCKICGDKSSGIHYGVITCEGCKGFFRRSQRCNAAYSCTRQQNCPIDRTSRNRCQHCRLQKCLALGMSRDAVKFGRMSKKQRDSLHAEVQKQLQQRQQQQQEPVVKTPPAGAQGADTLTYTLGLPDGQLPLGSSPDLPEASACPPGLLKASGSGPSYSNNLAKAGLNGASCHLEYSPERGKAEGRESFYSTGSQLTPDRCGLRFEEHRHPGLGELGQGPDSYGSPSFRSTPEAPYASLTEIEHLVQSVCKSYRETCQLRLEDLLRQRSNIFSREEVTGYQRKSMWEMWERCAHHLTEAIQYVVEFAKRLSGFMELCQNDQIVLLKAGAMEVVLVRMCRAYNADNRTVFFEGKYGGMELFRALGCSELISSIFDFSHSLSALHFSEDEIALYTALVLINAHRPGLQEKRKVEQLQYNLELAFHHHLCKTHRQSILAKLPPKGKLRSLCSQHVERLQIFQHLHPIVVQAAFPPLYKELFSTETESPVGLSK

Structure (SMILES)	IC50 ([1]; read-out: RORγ FRET-Mean IC50)	IC50 [2]	IC50 [1]
O=C(O)c1ccc(-n2cc(C(=O)c3c(Cl)cccc3C(F)(F)F)c3cccc(F)c32)cc1O [Compound 2, 4-[3-[2-chloro-6-(trifluoromethyl)benzoyl]-7-fluoro-indol-1-yl]-2-hydroxy-benzoic acid]	0.0179 µM	0.0126 µM	–
O=C(O)c1ccc(-n2cc(C(=O)c3c(Cl)cccc3C(F)(F)F)c3cccc(F)c32)c(F)c1 [Compound 3, 4-[3-[2-chloro-6-(trifluoromethyl)benzoyl]-7-fluoro-indol-1-yl]-3-fluoro-benzoic acid]	0.0379 µM	0.015 µM	–
O=C(O)c1ccc(-n2cc(C(=O)c3c(F)cccc3C(F)(F)F)c3cccc(F)c32)cc1 [Comparator 2, 4-[7-fluoro-3-[2-fluoro-6-(trifluoromethyl)benzoyl]-1-H-indol-1-yl]benzoic acid, reference compound]	0.0619 µM	0.0482 µM	–
O=C(O)c1ccc(-n2cc(C(=O)c3c(F)cccc3C(F)(F)F)c3cccc(F)c32)c(F)c1 [Comparator 5, 3-fluoro-4-[7-fluoro-3-[2-fluoro-6-(trifluoromethyl)benzoyl]-1H-indol-1-yl]benzoic acid, reference compound]	0.111 µM	0.047 µM	–
O=C(O)c1ccc(-n2cc(C(=O)c3c(Cl)cccc3C(F)(F)F)c3ccccc32)cc1 [Comparator 1, 4-[3-[2-chloro-6-(trifluoromethyl)benzoyl]-1H-indol-1-yl]benzoic acid, reference compound]	–	0.0453 µM	–
O=C(O)c1ccc(-n2cc(C(=O)c3c(Cl)cccc3C3CC3)c3cccc(F)c32)c(F)c1 [Compound 4, 4-[3-(2-chloro-6-cyclopropyl-benzoyl)-7-fluoro-1H-indol-1-yl]-3-fluoro-benzoic acid]	–	0.0319 µM	0.0429 µM
